Reference: US11578079B2, “SUMO inhibitor compounds and uses thereof” (CITY OF HOPE, priority 2018, dated 2023)

Legend:
[1] = target: T1, SUMO (Homo sapiens, UniProt Q9UBT2); assay: SUMO activity (Table I, biological activities); type: biochemical; parameters: key: + (less active); ++ (active); +++ (most active)
T1 sequence (Q9UBT2 1-640): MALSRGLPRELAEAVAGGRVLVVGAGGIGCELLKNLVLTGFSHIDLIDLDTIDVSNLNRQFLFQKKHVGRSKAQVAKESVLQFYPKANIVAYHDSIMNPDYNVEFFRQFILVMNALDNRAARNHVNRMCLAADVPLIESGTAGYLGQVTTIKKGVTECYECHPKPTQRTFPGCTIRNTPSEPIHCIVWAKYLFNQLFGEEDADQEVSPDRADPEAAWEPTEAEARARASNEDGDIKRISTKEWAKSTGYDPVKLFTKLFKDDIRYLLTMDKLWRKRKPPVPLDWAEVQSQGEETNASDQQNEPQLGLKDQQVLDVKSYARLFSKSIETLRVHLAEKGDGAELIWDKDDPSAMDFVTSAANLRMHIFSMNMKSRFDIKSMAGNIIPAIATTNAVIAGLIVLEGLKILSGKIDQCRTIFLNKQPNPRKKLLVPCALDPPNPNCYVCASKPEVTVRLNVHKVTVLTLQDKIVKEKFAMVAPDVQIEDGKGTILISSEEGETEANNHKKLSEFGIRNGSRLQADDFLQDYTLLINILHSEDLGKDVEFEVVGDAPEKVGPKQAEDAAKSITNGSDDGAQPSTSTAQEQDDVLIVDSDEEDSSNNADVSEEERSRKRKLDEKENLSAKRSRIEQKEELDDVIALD
T1 sequence (Q9UBE0 1-346 partner): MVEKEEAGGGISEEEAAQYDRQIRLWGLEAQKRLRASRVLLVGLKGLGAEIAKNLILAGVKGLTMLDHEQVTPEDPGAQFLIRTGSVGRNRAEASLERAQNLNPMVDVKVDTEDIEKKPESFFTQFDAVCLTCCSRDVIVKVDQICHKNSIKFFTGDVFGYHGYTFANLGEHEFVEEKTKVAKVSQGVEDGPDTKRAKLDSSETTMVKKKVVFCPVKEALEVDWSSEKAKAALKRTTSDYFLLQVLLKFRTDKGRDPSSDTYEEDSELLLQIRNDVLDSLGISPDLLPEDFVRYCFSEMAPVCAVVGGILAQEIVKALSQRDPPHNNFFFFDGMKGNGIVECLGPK

[2] = target: T2, Nedd8 (Homo sapiens, UniProt Q8TBC4); assay: Nedd8 activity (Table I, biological activities); type: biochemical; parameters: key: + (less active); ++ (active); +++ (most active)
T2 sequence (Q8TBC4 1-463): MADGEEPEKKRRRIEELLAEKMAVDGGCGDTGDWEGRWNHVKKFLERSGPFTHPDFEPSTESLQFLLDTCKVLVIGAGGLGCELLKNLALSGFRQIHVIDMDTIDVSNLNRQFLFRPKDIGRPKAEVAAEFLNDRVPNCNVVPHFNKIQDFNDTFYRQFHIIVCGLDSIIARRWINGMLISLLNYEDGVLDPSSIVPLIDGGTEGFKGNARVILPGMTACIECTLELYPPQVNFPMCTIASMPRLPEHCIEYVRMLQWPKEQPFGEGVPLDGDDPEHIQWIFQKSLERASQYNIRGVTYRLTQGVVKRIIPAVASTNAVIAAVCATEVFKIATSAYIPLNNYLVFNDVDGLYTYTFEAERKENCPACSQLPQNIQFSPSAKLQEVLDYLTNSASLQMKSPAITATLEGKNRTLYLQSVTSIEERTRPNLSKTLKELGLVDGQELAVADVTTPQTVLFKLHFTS
T2 sequence (Q13564 1-534 partner): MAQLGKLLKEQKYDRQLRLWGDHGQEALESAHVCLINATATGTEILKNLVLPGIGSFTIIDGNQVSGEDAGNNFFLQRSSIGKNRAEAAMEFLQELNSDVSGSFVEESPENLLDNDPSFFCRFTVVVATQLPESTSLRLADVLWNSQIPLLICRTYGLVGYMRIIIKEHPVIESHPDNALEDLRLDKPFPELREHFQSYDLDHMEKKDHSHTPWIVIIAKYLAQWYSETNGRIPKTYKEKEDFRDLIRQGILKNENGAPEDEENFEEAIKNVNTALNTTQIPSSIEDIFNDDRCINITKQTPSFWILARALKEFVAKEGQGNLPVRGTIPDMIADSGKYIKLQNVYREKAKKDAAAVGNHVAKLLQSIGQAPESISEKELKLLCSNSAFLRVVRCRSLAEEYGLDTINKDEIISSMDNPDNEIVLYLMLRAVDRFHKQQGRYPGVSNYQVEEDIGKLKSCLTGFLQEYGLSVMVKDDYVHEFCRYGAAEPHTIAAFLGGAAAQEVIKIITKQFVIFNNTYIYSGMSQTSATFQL

[3] = target: T3, Ubiquitin (Homo sapiens, UniProt P22314); assay: Ubiquitin activity (Table I, biological activities); type: biochemical; parameters: key: + (less active); ++ (active); +++ (most active)
T3 sequence (P22314 1-1058): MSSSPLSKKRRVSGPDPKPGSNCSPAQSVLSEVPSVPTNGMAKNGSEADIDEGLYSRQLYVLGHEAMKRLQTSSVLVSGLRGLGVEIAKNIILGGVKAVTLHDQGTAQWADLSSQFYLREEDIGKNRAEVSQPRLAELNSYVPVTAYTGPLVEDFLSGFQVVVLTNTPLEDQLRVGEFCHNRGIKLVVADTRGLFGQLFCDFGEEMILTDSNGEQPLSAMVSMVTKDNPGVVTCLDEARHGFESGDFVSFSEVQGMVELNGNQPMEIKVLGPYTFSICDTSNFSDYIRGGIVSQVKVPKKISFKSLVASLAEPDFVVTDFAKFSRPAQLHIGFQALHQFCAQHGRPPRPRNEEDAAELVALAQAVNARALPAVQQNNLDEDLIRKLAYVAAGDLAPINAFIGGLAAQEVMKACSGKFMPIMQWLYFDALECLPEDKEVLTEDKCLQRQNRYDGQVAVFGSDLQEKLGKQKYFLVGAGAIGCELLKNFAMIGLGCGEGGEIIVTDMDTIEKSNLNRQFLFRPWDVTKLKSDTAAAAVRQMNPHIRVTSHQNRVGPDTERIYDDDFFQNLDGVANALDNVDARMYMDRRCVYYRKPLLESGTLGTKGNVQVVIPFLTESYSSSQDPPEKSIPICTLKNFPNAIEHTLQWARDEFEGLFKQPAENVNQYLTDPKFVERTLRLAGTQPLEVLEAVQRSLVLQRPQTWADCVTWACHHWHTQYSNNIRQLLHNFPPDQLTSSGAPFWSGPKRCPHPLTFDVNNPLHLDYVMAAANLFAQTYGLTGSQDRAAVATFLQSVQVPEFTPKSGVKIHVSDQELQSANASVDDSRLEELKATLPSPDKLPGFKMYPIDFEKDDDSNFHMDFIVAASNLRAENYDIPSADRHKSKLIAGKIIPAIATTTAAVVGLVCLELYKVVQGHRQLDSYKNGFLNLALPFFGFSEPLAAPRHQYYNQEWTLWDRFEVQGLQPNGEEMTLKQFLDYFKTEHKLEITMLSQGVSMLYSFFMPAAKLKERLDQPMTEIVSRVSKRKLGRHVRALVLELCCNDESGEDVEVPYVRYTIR

[4] = tested on: c-Myc; assay: c-Myc activity (Table I, biological activities); parameters: key: + (less active); ++ (active); +++ (most active)
[5] = tested on: cancer stem cell (CSC) populations in patient derived xenograft (PDX) models; assay: Limited dilution assays of cancer stem cell populations in PDX models (FIG. 1); type: cell-based; settings: 1 μM to 10 μM
From the text: FIG. 1. Examination of the effect of compounds 582 and 588 to reduce cancer stem cell (CSC) populations in patient derived xenograft (PDX) models using limited dilution assays.

| SUMO [1] | Nedd8 [2] | Ubiquitin [3] | Structure (SMILES) | c-Myc [4] | inhibition on PDX cancer-initiating-cell (CIC) frequency [5] |
| --- | --- | --- | --- | --- | --- |
| +++ | ++ | + | COC(=O)C1=C(C(=O)NCCN(C)C)C2C=CC1(C(Cc1ccccc1)Nc1cccc(CO)c1)O2 (centres unmarked) [Compound 535] | ++ |  |
| ++ | ++ | + | COC(=O)C1=C(C(N)=O)C2C=CC1(C(Cc1ccccc1)Nc1cccc(CO)c1)O2 (centres unmarked) [Compound 536] |  |  |
| ++ |  |  | CCOC(=O)C1=C(C(=O)Nc2c(C)cccc2C)C2C=CC1(C(Nc1ccccc1)c1ccc(CN3CCOCC3)cc1)O2 (centres unmarked) [Compound 582] | ++ | dose-dependent inhibition on PDX cancer-initiating-cell (CIC) frequency, even at 1 μM |

Continued, molecule first:

| Structure (SMILES) | SUMO [1] | Nedd8 [2] | Ubiquitin [3] | c-Myc [4] | inhibition on PDX cancer-initiating-cell (CIC) frequency [5] |
| --- | --- | --- | --- | --- | --- |
| COC(=O)C1=C(C(=O)Nc2ccc(OCCN(C)C)cc2)C2OC1(C(Cc1ccccc1)Oc1ccccc1)C1OC21 (centres unmarked) [Compound 534] | + | ++ | + | ++ |  |
| COC(=O)C1=C(C(=O)Nc2ccc(CN(C)C)cc2)C2OC1(C(Cc1ccccc1)Oc1ccccc1)C1OC21 (centres unmarked) [Compound 545] | ++ |  | + | ++ |  |
| CCOC(=O)C1=C(C(=O)Nc2c(CC)cccc2CC)C2C=CC1(C(Nc1ccccc1)c1ccc(CN3CCOCC3)cc1)O2 (centres unmarked) [Compound 588] | ++ |  |  | ++ | only showed inhibition on CIC at high dose 10 μM |
